Assay results taken from patent publication US20160008339A1, “PSORALEN DERIVATIVES FOR PREVENTING OR TREATING HEART FAILURE OR CARDIAC HYPERTROPHY” (MAX-DELBRUCK-CENTRUM FUR MOLEKULARE MEDIZIN, priority 2012, published 2016).
Entries after “also recorded” stand apart in the source; their conditions may differ.

Columns and labels:
[1] = tested on: Gα12 coupled and AKAP-Lbc mediated activation of RhoA; experiment: Rhotekin-based precipitation of RhoA-GTP, HEK293 transfected with Gα12QL / AKAP-Lbc; format: cell-based, human; settings: 50 μmol/L, 30 min, vs DMSO
Procedure: (§1) HEK293 cells were seeded in 6-well plates. One day later the cells were transfected with the following plasmid DNAs:
(§2) After additional 24 hours the cells were treated with compound 31413 (50 μmol/L) or DMSO for 30 min at 37° C. Subsequently, the cells were lysed in precipitation buffer (50 mM Tris pH 7.4, 150 mmol/L NaCl, 4 mmol/L MgCl2; 10% v/v glycerol, 1% octylphenoxypolyethoxyethanol [IPEGAL]) and centrifugated 20000 g for two minutes to remove cell debris. 40 μl of the lysate were taken for the determination of the total RhoA content. The residual lysate was incubated with 40 μl GSH-sepharose coupled GST-rhotekin for one hour at 4° C. Then, the GSH-sepharose was washed twice with precipitation buffer, enriched with SDS-PAGE loading buffer and heated 5 min at 90° C. […] The ratio between total RhoA and Rho-GTP was densitometrically determined.
(§3) The activation state of RhoA was determined with a Rho binding region of the rhotekin protein, a Rho effector, immobilised on a sepharose bead in the presence and absence of compound 31413. […]
(§4) GTP-bound RhoA was detected by rhotekin precipitation (FIG. 3). The precipitation of RhoA from transfected HEK293 cells was performed with a rhotekin sepharose, and analysed with SDS-PAGE and immunoblotting with a RhoA specific antibody. […] The precipitated RhoA-GTP was separated with SDS-PAGE, blotted and detected with a specific anti-RhoA antibody.

[2] = tested on: GαqRC and p63RhoGEF (Gαq coupled activation of RhoA); experiment: Rhotekin-based precipitation of RhoA-GTP, HEK293 transfected with GαqRC / p63RhoGEF; format: cell-based, human; settings: 50 μmol/L
Procedure: as §1, §2, §3, §4

[3] = tested on: primary neonatal rat cardiomyocytes; experiment: Beat frequency of neonatal cardiomyocytes by Fluo-4 calcium measurement; format: cell-based
Procedure: For cultivation of primary neonatal rat cardiomyocytes, hearts of two to three days old rats were obtained and quickly stored on ice in ADS buffer (116.4 mM NaCl, 5.4 mM KC, 5.6 mM dextrose, 10.9 mM NaH2PO4, 405.7 μmol/L MgSO4, 20 mM Hepes, pH 7.3). Under sterile conditions, the hearts were cleaned from blood and vessels, cut into small pieces and transferred into falcon tubes. The ADS buffer was exchanged against an enzyme solution (see table below). Within four cycles each with five ml enzyme solution and an enzyme mix comprising collagenase and pancreatin, isolated cells were released from the tissue (12 min at 37° C. in a water bath with approx. 220 rpm).
The supernatant with the isolated cells was collected, transferred in fetal calf serum (FCS, 2.5 ml on ice) and subsequently centrifugated in FCS (100 g for 3 min at 4° C.). The supernatant of the centrifugation was discarded and the pellet was resuspended in 5 ml cold plating medium. After an additional centrifugation, the pellet was resuspended in 15 ml medium, transferred into a dish and incubated for two hours at 37° C. to allow the settling of the fibroblasts. The cardiomyocytes in the supernatant were counted with a Scepter Handheld Automated Cell Counter and transferred in dishes coated with gelatine. On the following day the medium was changed.
The frequency of contraction could be determined in a similar manner with a calcium sensor (Fluo-4). In a laser-scanning microscope, Fluo-4 was excited with an argon laser (488 nm) and the emission signals were detected and collected at a wavelength of 505 nm. The fluorescence intensity represented the intracellular concentration of calcium ions. Usually, the line-scan mode was used for image recording, and the line-scan images were recorded with a speed of 1.54 or 1.92 ms per line along the longitudinal axis of the cell. After the sequential image recording, a two-dimensional image with 512×100 lines or 512×2000 lines was generated and saved for later analysis.
Additional calcium measurements were performed. […] The fluorescence dye Fluo-4 was added after 20 min. Fluo-4 is a calcium sensor, which is used for investigating the calcium increase in cells. In cardiomyocytes the dye serves for examining the contractility. During contraction and relaxation, the calcium concentrations differ in the cytosol of cardiomyocytes. The fluorescence intensity of Fluo-4 increases with an increasing calcium concentration, and a decreasing calcium concentration will cause reduced fluorescence intensity. A frequency could be calculated from the fluo-4 fluorescence oscillation by a time depended analysis, wherein the fluorescence was measured over a period of two hours. The ground state at the moment before application (black), the period 10 to 30 sec after application (dark grey) and 70 to 110 sec after application (light grey) were evaluated (FIG. 5). Application refers to the adding of PE or adrenaline. […] The statistical analysis was performed according to the method of analysis of variance (ANOVA).

[4] = tested on: primary neonatal cardiomyocytes (α-sceletal muscle actin mRNA); experiment: Hypertrophy marker α-actin 1 mRNA by quantitative real-time PCR; format: cell-based, rat
Procedure: Primary neonatal cardiomyocytes were prepared as described above. The cardiomyocytes were stimulated for 24 or 48 hours with 100 μmol/L phenylephrin (PE) or 10 μmol/L isoproterenol (ISO) in absence or presence of 10 μmol/L or 50 μmol/L of compound 31413.
After 24 hours or 48 hour of stimulation, the medium was removed, and every well was washed with 2 ml phosphate buffered saline and fixed with 200 μl TRIzol. The cells were removed from each well and transferred into a 1.5 ml Eppendorf tube, respectively.
For cell breakdown, 40 μl chloroform was added to each Eppendorf tube. The broken cells were centrifuged for 15 min at 1400 g and 4° C. The supernatant containing RNA/DNA was taken, mixed with 100 μl isopropanol and centrifugated for 20 min at 1500 g and 4° C. The supernatant was discarded and the pellet was resuspended in 500 μL ethanol. The RNA from the pellet was purified by chromatography. The concentration of the RNA was determined by NANODROP.
The quantification of the hypertrophy marker α-sceletal muscle actin (α-actin 1) mRNA was performed by quantitative real-time PCR. First, the RNA was transcribed to a cDNA with a SuperScript™III First-Strand Synthesis SuperMix (Invitrogen) and random hexamer primers. The cDNA was amplified in a PCR reaction in an Applied Biosystem StepOne™ Real-Time PCR System. Glycerinealdehydephosphate dehydrogenase and NTC (no template control) was used as controls. All samples were triplicates. The following primers have been used: […]

[5] = molecular target: T1, AKAP-Lbc (guanine nucleotide exchange on RhoA) (Homo sapiens, UniProt Q12802); experiment: RhoGEF nucleotide exchange assay (GDP against mGTP on RhoA); settings: IC50 (fifty percent inhibition of nucleotide exchange), 15 min
T1 sequence (Q12802 1994-2333): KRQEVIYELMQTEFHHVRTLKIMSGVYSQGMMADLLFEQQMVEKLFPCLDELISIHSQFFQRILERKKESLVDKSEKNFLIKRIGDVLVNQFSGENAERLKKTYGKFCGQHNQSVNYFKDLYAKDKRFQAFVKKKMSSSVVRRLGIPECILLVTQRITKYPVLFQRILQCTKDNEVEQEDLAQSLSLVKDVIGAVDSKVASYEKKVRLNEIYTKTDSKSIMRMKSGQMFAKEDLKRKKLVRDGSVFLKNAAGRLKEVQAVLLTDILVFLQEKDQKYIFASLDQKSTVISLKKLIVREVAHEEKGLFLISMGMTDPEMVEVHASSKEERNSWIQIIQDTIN
Procedure: Following the protocol of the RhoGEF exchange assay Biochem Kit, a nucleotide exchange experiment for AKAP-Lbc and RhoA was established. The fluorescence labelled nucleotide analogues 2′(3′)-O—(N-methylanthraniloyl)-guanosine diphosphate and 2′(3′)-O—(N-methylanthraniloyl)-guanosine triphosphate, hereinafter referred to mGDP and mGTP, were used for tracing the nucleotide exchange.
25 μl depletion buffer (100 mmol/L sodium phosphate, pH 7.4, 5 mmol/L EDTA, 200 mmol/L ammonium sulfate) with an excess of mGDP (5 mmol/L) were added to 200 μg recombinant his6-RhoA (25 μl) and incubated one hour at room temperature. Then, magnesium chloride (MgCl2) was added to a final concentration of 10 mmol/L.
By centrifugation with Vivaspin® 500 concentrator vials (MWCO 5 kDa, 10 min, 10000 rpm) and buffer (100 mmol/L sodium phosphate, pH 7.4, 100 mmol/L NaCl, protease inhibitor [cOmplete, Mini, EDTA-free protease inhibitor cocktaile]) RhoA-mGDP was washed twice and reduced to 100 μl. 1 μmol/L RhoA-mGDP and 0.5 μmol/L AKAP-Lbc DHPH in nucleotide exchange buffer (40 mmol/L Tris pH 7.5; 100 mmol/L NaCl; 20 mmol/L MgCl2, 100 μg/ml BSA) were used for the nucleotide exchange. The fluorescence measurements were performed in a micro plate reader (TECAN Safire) over a period of 15 min, whereby the fluorophore of mGDP was excited at 360 nm and the resulting fluorescence signal was determined at 440 nm.
At a concentration relation of 2 μmol/L protein and 1 μmol/L mGTP, an ideal fluorescence signal-to-noise-ratio was found in the nucleotide exchange buffer (40 mM Tris pH 7.5, 100 mmol/L NaCl, 20 mmol/L MgCl2, 100 μg/ml BSA). The fluorescence signal for mGTP was measured analogous to mGDP (λexc=360 nm; λem=440 nm) in a micro plate reader (TECAN Safire) over a period of 15 min. The experiment was performed in a 384-well plate.

[6] = Fluo-4, pre-incubation 2.5 μmol/L

With `COc1ccc(-c2coc3cc4oc(=O)c(C)c(C)c4cc23)cc1` [Compound 31413, 3-(4-methoxyphenyl)-5,6-dimethyl-furo[3,2-g]chromen-7-one] the “amount of activated GTP-bound RhoA precipitated” value [1] was “significantly decreased amount of activated GTP-bound RhoA; also recorded: less RhoA-GTP was precipitated”, the “precipitated amount of RhoA-GTP” value [2] was “no difference” and the “adrenalin (beta-adrenoceptor)-induced increase in cardiac myocyte beating frequency” value [3] was “does not, however, affect”. For the same compound, the “PE induced increase of beat rate” value [3, 6] was “inhibited only the PE induced increase of beat rate”, the “adrenaline induced increase of beat rate” value [3, 6] was “not the adrenaline induced one” and the “α-actin 1 mRNA amount” value ([4]; PE 100 μmol/L 24 h, compound 10 or 50 μmol/L) was “concentration dependent decrease”. For the same compound, the “relative amount of α-actin 1 mRNA” value ([4]; without PE stimulation) was “no significant change” and the IC50 [5] was 25.9 µM.
